Structures can show the parent of a compound that is named as a salt. Activity calls are given as the source filed them.
Assays:
[1] = target: Arf-GAP with SH3 domain, ANK repeat and PH domain-containing protein 1 (Homo sapiens, UniProt Q9ULH1); type: functional;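 also: biochemical fluorescence polarization dose–response screen measuring inhibition of ASAP1; ASAP1 GAP domain stimulating GTP hydrolysis by truncated human ARF1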
[2] = target: Adenosylmethionine-8-amino-7-oxononanoate aminotransferase (Mycobacterium tuberculosis, UniProt P9WQ81); assay: Mycobacterium tuberculosis BioA enzyme inhibitor Measured in Biochemical System Using Plate Reader - 2163-02_Inhibitor_Dose_CherryPick_Activity.; type: functional, Mycobacterium tuberculosis UT205
Adenosylmethionine-8-amino-7-oxononanoate aminotransferase, sequence (P9WQ81 whole entry, the tested form may be a part): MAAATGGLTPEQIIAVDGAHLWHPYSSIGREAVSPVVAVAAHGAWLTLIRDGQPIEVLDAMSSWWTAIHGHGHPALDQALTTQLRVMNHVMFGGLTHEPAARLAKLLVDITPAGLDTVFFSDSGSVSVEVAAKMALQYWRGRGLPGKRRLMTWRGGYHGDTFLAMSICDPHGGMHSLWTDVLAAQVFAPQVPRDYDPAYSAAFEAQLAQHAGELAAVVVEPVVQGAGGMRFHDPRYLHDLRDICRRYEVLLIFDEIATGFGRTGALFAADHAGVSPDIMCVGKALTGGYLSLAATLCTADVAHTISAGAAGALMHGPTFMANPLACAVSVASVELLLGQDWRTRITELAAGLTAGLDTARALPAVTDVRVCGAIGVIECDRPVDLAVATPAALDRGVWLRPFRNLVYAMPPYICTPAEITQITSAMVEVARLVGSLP

[3] = target: T1, Sentrin-specific protease 1 (Homo sapiens, UniProt Q9P0U3); assay: SENP1 catalytic domain blockers, concentration series – biochemical, kinetic FRET, dose response (AID 651697); type: functional; conditions: read-out: IC50_Mean
T1 sequence (Q9P0U3 whole entry): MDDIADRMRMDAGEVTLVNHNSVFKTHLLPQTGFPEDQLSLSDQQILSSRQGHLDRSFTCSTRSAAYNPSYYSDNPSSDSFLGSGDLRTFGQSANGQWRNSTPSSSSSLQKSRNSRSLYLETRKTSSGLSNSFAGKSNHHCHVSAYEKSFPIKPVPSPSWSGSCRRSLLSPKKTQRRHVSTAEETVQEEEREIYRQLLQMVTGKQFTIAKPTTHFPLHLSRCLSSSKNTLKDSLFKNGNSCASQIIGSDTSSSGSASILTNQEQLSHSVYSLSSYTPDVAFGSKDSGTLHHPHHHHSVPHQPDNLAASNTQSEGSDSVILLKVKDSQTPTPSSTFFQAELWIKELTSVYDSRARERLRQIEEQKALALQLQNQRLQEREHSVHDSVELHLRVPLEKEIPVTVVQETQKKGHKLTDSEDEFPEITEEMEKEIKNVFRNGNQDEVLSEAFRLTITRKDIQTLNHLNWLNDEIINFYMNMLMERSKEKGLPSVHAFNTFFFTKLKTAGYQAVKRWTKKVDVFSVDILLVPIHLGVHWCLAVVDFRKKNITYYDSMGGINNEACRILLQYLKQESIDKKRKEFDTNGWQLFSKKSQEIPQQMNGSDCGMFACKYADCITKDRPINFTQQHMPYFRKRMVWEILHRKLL

[4] = target: T1, Sentrin-specific protease 1; assay: Dose response confirmation of small molecule inhibitors of the catalytic domain of the SUMO protease, SENP1 in a FRET assay.; type: functional; conditions: read-out: IC50_Mean
[5] = target: T2, DNA repair and recombination protein RAD54-like (Homo sapiens, UniProt Q92698); assay: RAD54 Holliday junction migration blockers – biochemical, fluorescence, cherry-picked samples, dose series, confirmation (AID 651657); type: functional
T2 sequence (Q92698 whole entry): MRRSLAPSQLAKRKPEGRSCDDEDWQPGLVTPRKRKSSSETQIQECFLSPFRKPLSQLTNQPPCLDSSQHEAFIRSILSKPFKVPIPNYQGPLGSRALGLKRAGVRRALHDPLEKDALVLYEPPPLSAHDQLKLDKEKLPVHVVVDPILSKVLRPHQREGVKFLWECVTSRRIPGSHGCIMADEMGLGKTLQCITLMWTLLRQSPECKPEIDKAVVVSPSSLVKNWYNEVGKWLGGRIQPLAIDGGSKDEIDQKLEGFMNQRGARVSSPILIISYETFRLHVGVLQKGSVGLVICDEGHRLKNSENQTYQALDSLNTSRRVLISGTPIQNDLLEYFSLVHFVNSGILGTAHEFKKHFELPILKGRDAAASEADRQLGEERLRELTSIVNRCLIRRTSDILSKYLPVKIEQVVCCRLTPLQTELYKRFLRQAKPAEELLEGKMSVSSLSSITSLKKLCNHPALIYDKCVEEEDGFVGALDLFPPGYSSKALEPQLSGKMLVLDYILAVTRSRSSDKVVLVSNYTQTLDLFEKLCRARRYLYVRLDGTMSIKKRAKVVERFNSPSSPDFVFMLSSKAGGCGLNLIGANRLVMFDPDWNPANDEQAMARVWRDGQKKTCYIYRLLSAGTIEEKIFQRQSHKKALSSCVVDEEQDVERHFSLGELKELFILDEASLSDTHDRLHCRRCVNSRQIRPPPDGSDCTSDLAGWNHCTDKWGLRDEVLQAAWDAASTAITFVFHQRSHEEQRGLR

Interleukin-8 = target: T3, Interleukin-8 (Homo sapiens, UniProt P10145); assay: Dose Response confirmation of uHTS small molecule hits for cystic fibrosis induced NFkb Inhibitors in a PAF-induced IL8 counterscreen.; type: functional; conditions: read-out: IC50_Mean
T3 sequence (P10145 whole entry): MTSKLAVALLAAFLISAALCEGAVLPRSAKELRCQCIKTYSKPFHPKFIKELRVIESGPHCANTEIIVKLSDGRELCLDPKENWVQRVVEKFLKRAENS

[6] = target: T4, Heat shock factor protein 1 (Mus musculus, UniProt P38532); assay: decrease of HSF1-responsive luciferase luminescence – cell-based, NIH3T3, dose retest, confirmation (AID 2382); type: functional;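 also: NIH3T3 fibroblasts with HSF1-driven luciferase reporter stressed by proteasome inhibitor MG132; luminescence from HSF1-driven luciferase expression after 8 hours of MG132 stress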
T4 sequence (P38532 whole entry): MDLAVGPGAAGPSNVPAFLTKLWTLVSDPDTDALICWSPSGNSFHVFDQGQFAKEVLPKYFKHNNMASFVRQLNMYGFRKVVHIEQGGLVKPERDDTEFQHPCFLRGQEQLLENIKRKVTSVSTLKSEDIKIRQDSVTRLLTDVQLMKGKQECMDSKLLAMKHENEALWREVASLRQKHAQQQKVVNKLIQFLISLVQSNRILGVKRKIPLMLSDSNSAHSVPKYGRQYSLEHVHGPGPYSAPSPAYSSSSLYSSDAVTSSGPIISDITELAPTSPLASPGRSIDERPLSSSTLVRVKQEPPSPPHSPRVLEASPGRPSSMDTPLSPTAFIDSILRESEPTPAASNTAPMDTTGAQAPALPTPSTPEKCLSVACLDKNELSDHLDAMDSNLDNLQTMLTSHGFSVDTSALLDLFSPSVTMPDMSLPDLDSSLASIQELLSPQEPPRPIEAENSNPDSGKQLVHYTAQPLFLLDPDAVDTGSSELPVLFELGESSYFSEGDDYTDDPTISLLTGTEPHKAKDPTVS

Mu-type opioid receptor = Mu-type opioid receptor (Homo sapiens, UniProt P35372); type: functional, cell-based;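 also: U2OS cells with beta-arrestin recruitment to OPRM1 by beta-gal complementation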
Mu-type opioid receptor, sequence (P35372 whole entry): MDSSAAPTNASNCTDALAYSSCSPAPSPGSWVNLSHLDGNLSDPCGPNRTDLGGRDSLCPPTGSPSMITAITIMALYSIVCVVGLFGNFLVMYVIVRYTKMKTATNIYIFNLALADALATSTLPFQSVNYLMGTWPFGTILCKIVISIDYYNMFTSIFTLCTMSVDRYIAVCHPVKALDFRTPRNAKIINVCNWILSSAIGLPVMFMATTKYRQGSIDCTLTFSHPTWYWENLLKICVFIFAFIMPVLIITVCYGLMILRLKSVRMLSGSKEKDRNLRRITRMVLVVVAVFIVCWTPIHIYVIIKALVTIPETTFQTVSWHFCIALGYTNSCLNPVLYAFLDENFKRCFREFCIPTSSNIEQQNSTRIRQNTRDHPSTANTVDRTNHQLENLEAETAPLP

[7] = target: 5-hydroxytryptamine receptor 2A (Mus musculus, UniProt P35363); type: functional, cell-based;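 also: CHO-K1 cells with tagged receptor and beta-arrestin; agonist potency measured as compound-induced activation of the receptor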
5-hydroxytryptamine receptor 2A, sequence (P35363 whole entry, the tested form may be a part): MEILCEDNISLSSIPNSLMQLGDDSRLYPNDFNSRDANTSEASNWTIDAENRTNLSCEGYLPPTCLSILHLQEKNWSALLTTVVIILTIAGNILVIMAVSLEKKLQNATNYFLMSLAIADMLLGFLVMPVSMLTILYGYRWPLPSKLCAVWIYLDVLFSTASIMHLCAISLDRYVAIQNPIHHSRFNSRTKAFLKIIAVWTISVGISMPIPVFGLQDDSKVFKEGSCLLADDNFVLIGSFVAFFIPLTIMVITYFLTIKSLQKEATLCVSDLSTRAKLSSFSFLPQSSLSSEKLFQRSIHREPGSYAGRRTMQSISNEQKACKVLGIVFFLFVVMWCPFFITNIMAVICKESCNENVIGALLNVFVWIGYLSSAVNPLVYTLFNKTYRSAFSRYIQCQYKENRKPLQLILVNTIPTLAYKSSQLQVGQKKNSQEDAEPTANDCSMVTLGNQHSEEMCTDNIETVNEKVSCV

[8] = Fluorescence-based cell-based high throughput dose response assay for inhibitors of the interaction of nucleotide-binding oligomerization domain containing 2 (NOD2) and the receptor-interacting serine-threonine kinase 2 (RIPK2).; type: functional; conditions: Homo sapiens
Fatty acid synthase [9] = target: T5, Fatty acid synthase (Homo sapiens, UniProt P49327); assay: inhibition of human FAS-TE enzyme activity – biochemical, endpoint fluorescence intensity, uHTS hits, dose response (AID 624327); type: functional;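 also: fluorescence from hydrolysis of an O-methyl fluorescein acyl ester substrate by the enzyme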
T5 sequence (P49327 whole entry): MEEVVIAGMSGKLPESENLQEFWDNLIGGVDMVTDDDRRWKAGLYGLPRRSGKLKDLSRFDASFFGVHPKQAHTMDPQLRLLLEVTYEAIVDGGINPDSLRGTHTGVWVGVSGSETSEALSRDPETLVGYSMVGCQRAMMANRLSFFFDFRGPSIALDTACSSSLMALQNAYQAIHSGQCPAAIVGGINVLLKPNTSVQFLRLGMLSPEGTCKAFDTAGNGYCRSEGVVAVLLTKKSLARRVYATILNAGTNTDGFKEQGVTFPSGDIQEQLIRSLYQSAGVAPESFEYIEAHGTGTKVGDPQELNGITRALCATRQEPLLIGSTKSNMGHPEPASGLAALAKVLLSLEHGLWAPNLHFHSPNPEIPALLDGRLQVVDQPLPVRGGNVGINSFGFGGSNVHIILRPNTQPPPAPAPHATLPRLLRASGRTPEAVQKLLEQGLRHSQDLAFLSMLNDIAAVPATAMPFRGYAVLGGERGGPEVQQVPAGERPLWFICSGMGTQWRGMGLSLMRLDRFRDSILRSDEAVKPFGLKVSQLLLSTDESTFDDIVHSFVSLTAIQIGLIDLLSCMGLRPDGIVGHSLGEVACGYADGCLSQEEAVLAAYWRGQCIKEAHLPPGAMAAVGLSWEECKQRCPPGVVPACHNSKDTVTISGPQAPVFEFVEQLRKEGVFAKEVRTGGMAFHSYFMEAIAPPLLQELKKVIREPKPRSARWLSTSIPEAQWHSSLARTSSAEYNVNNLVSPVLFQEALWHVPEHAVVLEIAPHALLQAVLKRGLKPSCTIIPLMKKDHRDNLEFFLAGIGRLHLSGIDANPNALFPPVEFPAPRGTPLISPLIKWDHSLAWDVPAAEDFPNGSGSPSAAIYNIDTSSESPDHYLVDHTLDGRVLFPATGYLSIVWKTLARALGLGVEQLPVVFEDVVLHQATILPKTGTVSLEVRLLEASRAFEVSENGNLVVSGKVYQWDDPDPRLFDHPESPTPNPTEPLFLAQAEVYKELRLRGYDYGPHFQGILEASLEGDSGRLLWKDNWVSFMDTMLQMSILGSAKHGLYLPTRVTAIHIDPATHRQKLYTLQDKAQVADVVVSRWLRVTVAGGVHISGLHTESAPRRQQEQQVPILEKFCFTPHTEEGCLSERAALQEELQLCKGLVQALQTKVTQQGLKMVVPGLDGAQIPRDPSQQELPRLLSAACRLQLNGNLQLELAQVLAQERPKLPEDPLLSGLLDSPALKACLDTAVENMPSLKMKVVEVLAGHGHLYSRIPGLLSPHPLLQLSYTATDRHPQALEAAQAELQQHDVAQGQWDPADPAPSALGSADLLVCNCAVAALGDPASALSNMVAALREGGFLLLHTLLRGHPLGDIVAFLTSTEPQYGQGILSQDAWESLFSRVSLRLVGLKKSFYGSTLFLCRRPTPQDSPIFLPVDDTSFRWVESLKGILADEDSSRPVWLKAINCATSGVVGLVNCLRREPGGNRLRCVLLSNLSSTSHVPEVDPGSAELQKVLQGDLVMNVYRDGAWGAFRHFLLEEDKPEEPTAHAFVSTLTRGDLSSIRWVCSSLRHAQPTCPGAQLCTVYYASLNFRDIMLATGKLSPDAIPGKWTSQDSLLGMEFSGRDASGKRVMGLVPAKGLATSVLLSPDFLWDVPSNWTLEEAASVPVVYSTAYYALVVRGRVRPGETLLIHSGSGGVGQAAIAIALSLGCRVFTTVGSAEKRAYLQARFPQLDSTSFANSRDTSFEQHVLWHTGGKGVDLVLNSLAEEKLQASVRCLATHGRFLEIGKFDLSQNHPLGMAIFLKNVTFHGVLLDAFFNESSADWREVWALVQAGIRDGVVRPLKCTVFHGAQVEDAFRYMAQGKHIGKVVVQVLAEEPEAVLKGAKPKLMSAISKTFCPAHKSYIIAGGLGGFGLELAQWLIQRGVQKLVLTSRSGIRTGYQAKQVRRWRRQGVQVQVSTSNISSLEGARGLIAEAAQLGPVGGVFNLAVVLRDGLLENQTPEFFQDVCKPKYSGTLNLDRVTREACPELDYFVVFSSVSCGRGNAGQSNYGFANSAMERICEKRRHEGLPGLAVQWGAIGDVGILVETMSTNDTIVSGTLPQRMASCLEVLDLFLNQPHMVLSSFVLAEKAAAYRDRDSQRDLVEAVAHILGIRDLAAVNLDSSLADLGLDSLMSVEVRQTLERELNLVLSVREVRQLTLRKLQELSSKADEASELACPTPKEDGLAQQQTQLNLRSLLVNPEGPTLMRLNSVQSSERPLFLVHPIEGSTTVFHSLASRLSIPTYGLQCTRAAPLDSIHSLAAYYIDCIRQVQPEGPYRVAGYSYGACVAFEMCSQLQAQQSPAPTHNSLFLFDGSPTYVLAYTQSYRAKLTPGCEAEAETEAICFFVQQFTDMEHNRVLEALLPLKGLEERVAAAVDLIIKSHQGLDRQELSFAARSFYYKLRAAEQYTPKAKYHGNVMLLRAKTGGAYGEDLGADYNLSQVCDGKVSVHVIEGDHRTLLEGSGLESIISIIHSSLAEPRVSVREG

Fatty acid synthase [10] = target: T5, Fatty acid synthase; assay: inhibition of human FAS-TE enzyme activity – biochemical, kinetic fluorescence intensity, dose response (AID 624326); type: functional;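 also: rate of fluorescence rise from hydrolysis of a fluorogenic O-methyl fluorescein ester substrate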
[11] = test system: Streptococcus sp. 'group A'; assay: Streptococcus pyogenes SK(-)GAS viability under kanamycin – luminescence, BacTiterGlo, confirmation, counter-screen for streptokinase expression inhibitor project, dose response (AID 1900); type: functional, organism-based
Streptokinase A = target: T6, Streptokinase A (Streptococcus pyogenes serotype M1, UniProt P10520); assay: viability-normalized secreted streptokinase activity reduction – plasminogen activation absorbance, OD405, dose response (AID 1914); type: functional, Streptococcus pyogenes M1 GAS;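 also: secreted streptokinase activity via plasminogen activation per viability signal from cell pellet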
T6 sequence (P10520 whole entry): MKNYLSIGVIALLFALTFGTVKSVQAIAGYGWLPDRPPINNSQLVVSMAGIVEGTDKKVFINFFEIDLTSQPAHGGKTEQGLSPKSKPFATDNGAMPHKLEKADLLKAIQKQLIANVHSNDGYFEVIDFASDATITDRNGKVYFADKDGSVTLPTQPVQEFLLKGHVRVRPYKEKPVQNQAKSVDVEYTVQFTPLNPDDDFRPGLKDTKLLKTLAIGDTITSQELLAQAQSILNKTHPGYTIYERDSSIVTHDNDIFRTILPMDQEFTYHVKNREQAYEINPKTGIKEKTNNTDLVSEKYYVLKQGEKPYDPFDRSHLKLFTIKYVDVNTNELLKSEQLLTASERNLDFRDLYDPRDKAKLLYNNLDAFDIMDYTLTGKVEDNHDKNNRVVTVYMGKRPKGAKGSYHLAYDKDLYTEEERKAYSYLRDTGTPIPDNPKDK

Streptococcus = assay: GAS UMAA2166 growth inhibition – luminescence, BacTiterGlo, counter-screen for streptokinase expression inhibitor project, dose response (AID 1915); type: functional, organism-based;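 also: potency for reduction of bacterial viability or growth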
[12] = Luminescence Cell-Based Dose Retest to Confirm Inhibitors of Cancer Stem Cells. [Related pubchem assays (depositor defined):AID2717, AID2721]; type: functional; conditions: Homo sapiens
Insulin-degrading enzyme [13] = target: T7, Insulin-degrading enzyme (Homo sapiens, UniProt P14735); assay: recombinant IDE activation, cell-free – biochemical, fluorescence polarization, counter-screen for IDE activator project, dose response (AID 588681)
T7 sequence (P14735 whole entry): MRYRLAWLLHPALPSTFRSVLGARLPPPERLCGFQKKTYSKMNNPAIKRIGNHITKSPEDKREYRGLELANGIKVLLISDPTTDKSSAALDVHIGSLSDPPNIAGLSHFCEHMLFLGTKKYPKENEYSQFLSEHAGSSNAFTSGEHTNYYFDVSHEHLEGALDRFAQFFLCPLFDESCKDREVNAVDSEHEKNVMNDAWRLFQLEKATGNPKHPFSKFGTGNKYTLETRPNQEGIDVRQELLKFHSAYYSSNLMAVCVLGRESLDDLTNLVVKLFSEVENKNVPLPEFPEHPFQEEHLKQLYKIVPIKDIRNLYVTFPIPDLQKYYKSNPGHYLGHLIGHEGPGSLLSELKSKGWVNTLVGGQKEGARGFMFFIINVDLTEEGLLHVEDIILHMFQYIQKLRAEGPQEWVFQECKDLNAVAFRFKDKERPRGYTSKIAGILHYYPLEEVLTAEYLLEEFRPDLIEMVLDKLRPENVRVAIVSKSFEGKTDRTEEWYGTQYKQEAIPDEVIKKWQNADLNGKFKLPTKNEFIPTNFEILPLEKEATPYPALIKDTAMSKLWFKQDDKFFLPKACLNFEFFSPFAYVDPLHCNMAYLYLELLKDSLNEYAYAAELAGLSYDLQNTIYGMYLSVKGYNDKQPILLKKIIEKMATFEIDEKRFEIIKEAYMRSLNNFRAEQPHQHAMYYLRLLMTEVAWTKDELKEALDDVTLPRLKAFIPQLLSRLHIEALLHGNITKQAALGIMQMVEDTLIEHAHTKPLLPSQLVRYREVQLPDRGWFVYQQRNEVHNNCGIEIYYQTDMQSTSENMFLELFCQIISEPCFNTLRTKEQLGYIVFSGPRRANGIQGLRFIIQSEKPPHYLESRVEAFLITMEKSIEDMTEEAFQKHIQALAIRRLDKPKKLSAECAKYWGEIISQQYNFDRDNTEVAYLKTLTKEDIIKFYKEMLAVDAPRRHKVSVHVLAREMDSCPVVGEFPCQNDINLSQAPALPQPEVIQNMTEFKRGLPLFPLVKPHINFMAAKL

Insulin-degrading enzyme [14] = target: T7, Insulin-degrading enzyme; assay: cellular IDE activation of Abeta substrate cleavage – fluorescence polarization, HEK cells, dose response (AID 588439); type: functional, cell-based
HEK293 [15] = assay: membrane integrity loss in HEK cells – cell-based, fluorescence, cytotoxicity control for IDE activator project, dose response (AID 588440); type: functional; conditions: Homo sapiens;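 also: cytotoxicity by LDH release measuring loss of membrane integrity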
HEK293 [16] = assay: optical interference in Abeta FP readout, dose response, artefact control for IDE activator project, biochemical, fluorescence polarization (AID 588442); type: functional, cell-based; conditions: Homo sapiens
Galanin receptor type 3 = Galanin receptor type 3 (Homo sapiens, UniProt O60755); assay: Fluorescence-based cell-based primary high throughput dose response assay to identify antagonists of the Galanin Receptor 3 (GalR3).; type: functional
cells = type: functional, cell-based; conditions: HEK-CNG

Arf-GAP with SH3 domain, ANK repeat and PH domain-containing protein 1, sequence (Q9ULH1 whole entry, the tested form may be a part): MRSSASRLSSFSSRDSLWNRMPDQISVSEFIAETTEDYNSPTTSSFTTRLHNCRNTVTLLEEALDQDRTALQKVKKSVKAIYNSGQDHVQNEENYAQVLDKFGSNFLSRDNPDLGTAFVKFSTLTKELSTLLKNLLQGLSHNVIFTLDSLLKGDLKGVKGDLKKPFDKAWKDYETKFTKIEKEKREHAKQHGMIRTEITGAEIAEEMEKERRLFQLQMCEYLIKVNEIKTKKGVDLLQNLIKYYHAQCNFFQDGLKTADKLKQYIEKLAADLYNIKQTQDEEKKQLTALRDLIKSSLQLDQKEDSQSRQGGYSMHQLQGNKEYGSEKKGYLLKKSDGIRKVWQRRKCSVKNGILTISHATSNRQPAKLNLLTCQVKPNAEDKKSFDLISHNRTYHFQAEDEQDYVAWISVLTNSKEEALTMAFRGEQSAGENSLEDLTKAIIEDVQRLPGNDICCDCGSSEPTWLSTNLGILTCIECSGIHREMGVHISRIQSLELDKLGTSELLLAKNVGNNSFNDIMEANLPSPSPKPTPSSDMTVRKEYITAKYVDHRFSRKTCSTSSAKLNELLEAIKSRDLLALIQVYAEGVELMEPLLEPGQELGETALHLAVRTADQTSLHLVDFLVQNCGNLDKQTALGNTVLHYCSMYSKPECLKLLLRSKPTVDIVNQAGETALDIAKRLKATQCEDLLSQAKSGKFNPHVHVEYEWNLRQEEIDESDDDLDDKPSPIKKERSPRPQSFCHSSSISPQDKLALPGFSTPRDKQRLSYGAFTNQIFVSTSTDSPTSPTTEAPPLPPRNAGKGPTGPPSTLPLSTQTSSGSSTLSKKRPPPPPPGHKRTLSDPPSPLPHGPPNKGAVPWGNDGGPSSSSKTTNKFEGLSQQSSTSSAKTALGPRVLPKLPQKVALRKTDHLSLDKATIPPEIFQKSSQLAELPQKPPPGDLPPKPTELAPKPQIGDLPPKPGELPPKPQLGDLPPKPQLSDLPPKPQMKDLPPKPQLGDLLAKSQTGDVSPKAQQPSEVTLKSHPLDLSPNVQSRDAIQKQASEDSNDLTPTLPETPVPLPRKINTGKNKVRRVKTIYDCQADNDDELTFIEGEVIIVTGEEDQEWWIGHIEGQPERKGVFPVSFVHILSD

## O=C(CSc1ccccc1)Nc1ccc(-c2nc3ccccc3[nH]2)cc1
[1]
  IC50: 14.7 µM (inactive)

## Cc1nc2nc(SCC(=O)N3CCOCC3)nn2c(C)c1Cc1ccccc1
[2]
  AC50: 0.43 µM (active)

## COc1cccc2c1-c1c(O)cccc1C2=O
[3]
  IC50: 37.7 µM (inactive)
[4]
  IC50: 18.6 µM (active)
[5]
  AC50: 66.7 µM (active)

## Cc1c(-c2ccccc2)oc2c(C(=O)N3CCN(c4ccc([N+](=O)[O-])cc4)CC3)cccc2c1=O
Interleukin-8
  IC50: 40.2 µM (inactive)

## CN1CCN(C2=Nc3c(Cl)cc(Cl)c4cccc2c34)CC1
[3]
  IC50: 6.95 µM (active)
[4]
  IC50: 10.2 µM (active)

## CN1CCc2c(sc(/N=C/c3cc(C(C)(C)C)ccc3O)c2C#N)C1
[6]
  EC50: > 195 µM (not active)
Mu-type opioid receptor
  EC50: 92.6 µM (inactive)
[7]
  EC50: 12.9 µM (inactive)

## C/C=C/c1ccc2c(c1)O[C@@H](CN(C)C(=O)Nc1ccc(OC)cc1)[C@@H](C)CN([C@@H](C)CO)S2(=O)=O
[2]
  AC50: 2.08 µM (active)

## CCOC(=O)[C@]12Cc3cc(OC)ccc3[C@H]1N(C1CCCCC1)C(=O)c1ccccc12
[8]
  IC50: 2.5 µM (active)
Fatty acid synthase [9]
  IC50: 8.86 µM (active)
Fatty acid synthase [10]
  IC50: 6.5 µM (active)

## O=C(N/N=C/c1cccnc1)c1cc2c(ccc3ccccc32)o1
[1]
  IC50: 19.9 µM (inactive)

## CC(C)=CCCC1(C)C=Cc2c(c(C)cc3c2[nH]c2cc(O)ccc23)O1 (stereo not drawn)
[11]
  EC50: 2.61 µM (active)
Streptokinase A
  EC50: > 150 µM (not active)
Streptococcus
  EC50: 5.07 µM (active)
[12]
  AC50: 5.38 µM (active)
Insulin-degrading enzyme [13]
  EC50: > 54.7 µM (inactive)
Insulin-degrading enzyme [14]
  EC50: 41 µM (inactive)
HEK293 [15]
  IC50: 15.3 µM (inactive)
HEK293 [16]
  EC50: > 55.9 µM (inactive)

## COc1c2c(cc3c1OCO3)CCN(C)C2 [HYDROCOTARNINE HYDROBROMIDE]
Mu-type opioid receptor
  EC50: 92.4 µM (inactive)
[7]
  EC50: 76 µM (inactive)

## OCc1cc(C(O)CNCCCCCCOCCCCc2ccccc2)ccc1O (stereo not drawn) [SALMETEROL XINAFOATE]
Galanin receptor type 3
  IC50: > 29.9 µM (inactive)
cells
  EC50: > 29.9 µM (inactive)

From ChEMBL document CHEMBL1201862, “PubChem BioAssay data set” (2004)
